Laboratory results reported in article PMC3956872 (PLoS ONE, 2014).

Target: T1, TcAAAP069 (Trypanosoma cruzi, UniProt Q4DAV2)
T1 construct: gene Tc00.1047053504069.120; full-length gene in pTREXL, overexpressed in T. cruzi epimastigotes (also p416/pDR196 in S. cerevisiae MG266 gap1 put4); about 10 transmembrane spans; allele TcAAAP229 has a 62-residue N-terminal extension
Test: cell-based
Conditions: read-out: % inhibition at 10 mM

T1 sequence (Q4DAV2 entry or part of it): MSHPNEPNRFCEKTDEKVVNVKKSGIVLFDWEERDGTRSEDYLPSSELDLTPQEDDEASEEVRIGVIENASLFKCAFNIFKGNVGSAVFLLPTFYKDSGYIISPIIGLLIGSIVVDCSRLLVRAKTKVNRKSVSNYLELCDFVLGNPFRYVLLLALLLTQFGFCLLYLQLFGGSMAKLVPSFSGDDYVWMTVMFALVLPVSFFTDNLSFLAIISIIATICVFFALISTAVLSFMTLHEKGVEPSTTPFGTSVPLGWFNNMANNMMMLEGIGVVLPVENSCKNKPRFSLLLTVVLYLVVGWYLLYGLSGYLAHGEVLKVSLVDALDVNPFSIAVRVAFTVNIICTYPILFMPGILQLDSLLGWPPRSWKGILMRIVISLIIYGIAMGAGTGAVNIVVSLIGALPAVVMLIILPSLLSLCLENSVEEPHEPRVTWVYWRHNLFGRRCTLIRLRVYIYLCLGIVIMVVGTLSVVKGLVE

Row | SMILES | inhibition at 10000 µM [%]
1 | O=C(O)[C@H]1CCCN1 [D-proline] | 76.3
2 | O=C(O)[C@@H]1CSCN1 [L-thiazolidine-4-carboxylic acid] | 44.2
3 | O=C(O)[C@@H]1C[C@@H](O)CN1 [hydroxyproline] | 91.8
